Source: a melting point compilation (Tetko et al.; mined from patent text by program, amines drawn as free bases though some values may be those of a salt)

SMILES | melting point [°C]
COc1ccccc1N1CCN(CCn2c(=O)[nH]c3sc(Cl)cc3c2=O)CC1 | 228 to 230
CC(C(=O)NN)c1cn[nH]c1-c1ccc(-c2ccccc2)cc1O (configuration not stated) | 138 to 141
CN1CCN(c2cccc3ccc(N)cc23)CC1 | 157 to 159
O=C(O)c1ccc(-c2coc3ccccc23)cc1 | 222 to 225
COc1cc2c(c(OC)c1)C1CCCCC1C(=O)C2 (configuration not stated) | 130 to 131
Cc1cc(Br)c([N+](=O)[O-])c(Br)n1 | 118 to 120
COCO[C@@H](CCCCC1CCCCC1)CCc1ccc(C(C)(C)C)c(NC(=O)CC2c3ccccc3Oc3ccccc32)c1 | 71 to 73
CC(C)Cn1c(CNC(=O)OC(C)(C)C)c(-c2ccc(F)cc2)c2cc(OCC(N)=O)ccc2c1=O | 218 to 219
CC(C)Nc1cccnc1N1CCN(C(=O)c2ccc(C(=O)O)cc2)CC1 | 215 to 217
CCc1c(-c2ccc(OCc3ccccc3)cc2)cn2cccc(CO)c12 | 144 to 145
O=c1ccn(-c2cccc(C(F)(F)F)c2)nc1-c1ccnn1-c1cccc(F)c1 | 104 to 105
c1cc2c(cc1-c1nc(OCC3CC3)nc3cc4c(cc13)OCO4)OCO2 | 175 to 182
CCOCn1c(C(=O)c2cc(C)cc(C)c2)c(C(C)C)c(=O)[nH]c1=O | 120 to 122
CCOC(=O)c1cnc2c(C(F)(F)F)cc(-c3ccc(C(F)(F)F)cc3)cn12 | 132
CCCOc1cc(CCCOc2nn(C)cc2CC(=O)O)n(Cc2ccc(Cl)cc2Cl)n1 | 77 to 81
CCC1c2nc[nH]c2CCN1C(=S)NC (configuration not stated) | 230
COc1cccc(C2=C(c3ccc(C(=O)N4Cc5cccn5Cc5ccccc54)cc3C)CCCC2)c1 | 91 to 94
OC1Cc2ccc(C(F)(F)F)cc2Sc2ccc(F)cc21 (configuration not stated) | 73 to 75
COc1c(C(=O)O)nnn1Cc1ccccc1Cl | 130 to 135
Cc1cc(C)c2cccc(OCc3c(Cl)ccc(S(=O)(=O)N4CCC[C@H]4C(=O)NCCCNC(=O)c4cccc(C#N)c4)c3Cl)c2n1 | 102 to 106
C#CC(C)(C)Oc1ccc2ncccc2c1 | 65 to 67
CN(C)c1ccc(NC(=O)N(C[C@H]2CC[C@H](CN(C(=O)Nc3ccc(N(C)C)cc3)C3CCCCC3)CC2)C2CCCCC2)cc1 | 128 to 131
CN(C)C(=O)n1nc(C(C)(C)C)cc1S(C)=O (configuration not stated) | 95 to 96
COc1ccc2c(CO)c(F)ccc2c1C(F)(F)F | 113 to 114
CN1C(=O)CCC2=C1CCc1cccc(F)c12 | 75 to 76
CC(=O)C(C)(C)N1COC(C)=C(c2ccccc2)C1=O | 118 to 119

SMILES | melting point [°C]
CCOC(=O)c1ccc(NCc2cc3c(cc2O)CCCO3)cc1 | 150
CSc1ccc2c(c1)Cc1ccc(CO)cc1O2 | 151 to 153
C[C@@H](NC(=O)c1cnn(-c2ccc(Cl)cc2)c1C1CC1)[C@](O)(Cn1cncn1)c1ccc(F)cc1F | 181 to 182
Cc1cn(-c2ccc(N)c(C)c2)c(C)n1 | 92 to 96
Cn1c(=O)c(-c2c(Cl)cccc2Cl)cc2cnc(NCCCN3CCOCC3)nc21 | 140 to 142
CC(C)(C)OC(=O)NCc1ccc(OCCC2Oc3ccccc3N(Cc3ccccc3Cl)C2=O)cc1 (configuration not stated) | 121 to 123
CC(C)(C#N)ON1C(C)(C)CC(OC(=O)c2ccccc2)CC1(C)C | 128 to 129
C=CCNc1c(CO)cnc2cn(C(C)(C)OC)nc12 | 152 to 154
CCCCCCCCCCCCCCCCOc1coc(C(=O)O)cc1=O | 126 to 130
CN1CCN(S(=O)(=O)c2ccc(Br)s2)CC1 | 122
Nc1nc(-c2ccncc2)nc2[nH]c(S)nc12 | > 330
CC(O)(CCN1CCOCC1)c1ccc(-c2ccc(Br)cc2)cc1 (configuration not stated) | 97 to 99
COc1cc(OC)nc(NC(=O)NS(=O)(=O)c2ccccc2C(=O)O)n1 | 155 to 157
O=[N+]([O-])c1ccc(CN2CCNCCNCCNCC2)cc1 | 128 to 129
CCCCC(=O)N(Cc1cccc(OC)c1)c1cc(F)cc(-c2nnn[nH]2)c1 | 118 to 120
Cc1ncnc(C)c1N | 98 to 100
CCOC(=O)c1cn2c3c(c(C#N)ccc3c1=O)CCC2C (configuration not stated) | 249 to 251
COc1ccc(CC(N)(C#N)CF)cc1OC (configuration not stated) | 76
CC(=O)Oc1ccc([N+](=O)[O-])cc1C1(OC(C)=O)C(=O)c2ccccc2C1=O | 163 to 167
COc1ccc([N+](=O)[O-])cc1CN1CCC(=O)C(C(c2ccccc2)c2ccccc2)C1 (configuration not stated) | 119 to 120
Oc1nnc(Cl)cc1N1CCNCC1 | 35
COc1ccc(NS(=O)(=O)c2ccc(N3CCNC3=O)cc2)cc1OC | 215 to 216
N#Cc1ccccc1N1CCN(CCC=C2c3ccccc3CCc3ccccc32)CC1 | 112 to 114
COc1ccc(CSc2nnc(-c3ccc4nccn4c3)o2)cc1C(F)(F)F | 146 to 147
O=C(O)CC(O)c1ccc(-c2ccccc2Cl)o1 (configuration not stated) | 53 to 55
O=C(NC1CCCc2ccccc21)c1ccc2cnccc2n1 (configuration not stated) | 164 to 165

SMILES | melting point [°C]
NCCCOc1ccc(-c2ncc3c(=O)[nH][nH]c(=O)c3c2O)cc1 | > 300
CCn1c(=O)c2c(ncn2CCCCC2CO2)n(CC)c1=O (configuration not stated) | 58 to 59
c1ccc(COc2cc3ccncc3cc2OCc2ccccc2)cc1 | 97
CCOC(=O)CCCCCCC1C(=O)NC(=O)N1CCC(O)C1CCCCC1 (configuration not stated) | 62 to 63
CC1(C)C=C(C(O)CN)c2ccccc21 (configuration not stated) | 93
CON=C(OC)C(=O)c1nccn1Cc1ccccc1 | 55 to 58
COc1cc2ccc(-c3ccc(C(C)C)cc3)cc2oc1=O | 127
COc1ccccc1N1CCN(CCC(C(=O)NCCN2CCOCC2)c2ccccc2)CC1 (configuration not stated) | 60 to 65
COc1cc(C2CCN(C)CC2)ccc1-c1nc2c(N[C@H]3[C@@H](C(N)=O)[C@@H]4C=C[C@H]3C4)c(Cl)cnc2[nH]1 | 232 to 235
CCCCOc1ccc(S(=O)(=O)C2(C(=O)O)CCN(Cc3cccc(Oc4ccccc4)c3)CC2)cc1 | 92.5
Cc1nc2c(Cl)cnn2c(Cl)c1CCCl | 115 to 117
O=C1OCCC1Oc1ccc(Cl)cc1[N+](=O)[O-] (configuration not stated) | 136 to 140
COc1ccc(-c2nc(C(F)(F)F)c(Br)[nH]2)cc1Cl | 228
O=C(c1c[nH]c2cc(Cl)ccc12)C(F)(F)F | 256 to 258
NC(=O)/C=C/c1cnoc1-c1ccccc1 | 194 to 196
Cc1ccc(CC(C)NCC(O)c2cc3ccccc3o2)cc1 (configuration not stated) | 88 to 100
Brc1ccccc1Sc1nc2ccccc2n2cncc12 | 191 to 192
O=C(Nc1ccc2nc(CN3CCCC3)ccc2c1)N1CCC(c2ccc(F)cc2)CC1 | 206 to 207
CCCCC1(N(C)C)CCC(c2[nH]c3ccc(C#N)cc3c2C)CC1 (configuration not stated) | 162 to 166
CC[C@@H](c1ccccc1)N(Cc1ccc(C(=O)O)cc1)S(=O)(=O)c1ccc(Cl)cc1 | 154 to 156
C#CCc1c(C)nc2c(OCc3c(C)cccc3N(C)C(C)=O)cccn12 | 76
COC(=O)Cc1c(Cl)cc(C(=O)c2ccc(C)cc2)n1C | 144 to 146
O=[N+]([O-])c1cn2c(n1)O[C@@H](COc1ccc(N3CCC(Nc4ccc(Oc5ccc(OC(F)(F)F)cc5)cc4)CC3)cc1)CC2 | 120 to 121
c1cnc(N2CCN(Cc3ccc(CN4CCN(c5ncccn5)CC4)cc3)CC2)nc1 | 193 to 195
CCOC(=O)OC1CCN(C(=O)OCC)Cc2c1nc1ccccc1c2C (configuration not stated) | 40
Fc1cc(CC2(Cc3ccnc(F)c3)c3cccnc3-c3cccnc32)ccn1 | 134 to 135

SMILES | melting point [°C]
O=C1NCCc2ccc(OCCCN3CCCN(c4cccc(Cl)c4Cl)CC3)cc21 | 116 to 117
CS(=O)(=O)Nc1ccc(OC2CCN(c3ccncc3)CC2)cc1 | 191 to 192
c1cc2c3c(c[nH]c3c1)CC1NCCCC21 (configuration not stated) | 170 to 173
CCOC(=O)C1(NC(=O)CC)Cc2cccc3c2N(CCC3)C1=O (configuration not stated) | 136 to 140
CCOC(=O)CN(C(=O)CNC(=O)Nc1cccc(C)c1)c1ccccc1 | 181
COc1cc(OC)cc(N2CCN(C(=S)Nc3cc4c(nc3OC)CCCC4)CC2)c1 | 160 to 161
COc1cc(-n2nc3n(c2=S)CCSC3)c(Cl)cc1Cl | 131 to 135
CCC(=O)C(CCCCc1ccc(O)cc1)C(=O)CC | 67 to 69
Cc1ccc(CNc2c(NC(C)(C)C)c(=O)c2=O)c(C)c1 | 228 to 229
Cc1ccc(-c2ccccc2-n2c(C)n[nH]c2=O)cc1 | 102 to 104
CN1CCN(C)c2c(N)cccc2C1=O | 165 to 166
COc1ccccc1-c1nc(-c2ccccc2)c2ncc(Cl)cc2n1 | 116 to 117
Cc1c(C)c2c(c(C)c1O)C(=O)CC(COc1ccc(CC3SC(=O)NC3=O)cc1)O2 (configuration not stated) | 249 to 252
CCOC(=O)C(=CN(C)C1(CO)CC1)C(=O)c1c(F)c(F)c(F)c(F)c1F | 74.5 to 76
CC(=O)c1c2sc3ccccc3nc-2ccc1=O | 222
O=c1c(OCCO)c(-c2ccc(OCc3ccccc3)c(OCc3ccccc3)c2)oc2cc(OCc3ccccc3)ccc12 | 137
COc1cc2c(nc1OC)c(-c1cc3cc(F)cnc3[nH]1)cn2CCN1CCOCC1 | 218
N#Cc1ccc2[nH]cc(CCN3C(=O)c4ccccc4C3=O)c2c1 | 217 to 221
O=C1NCN(c2ccc(F)cc2)C12CCN(C1CCC(c3ccc(F)cc3)(c3ccc(F)cc3)CC1)CC2 | 237 to 240
CCCc1cn(C(CC)C(=O)N(C)C)nc1-c1ccccc1 (configuration not stated) | 63 to 65.5
CC(C)CC(CO)NC(=O)C(Cc1cn(NC(=O)OCc2ccccc2)cn1)NC(=O)CCCc1ccccc1 (single isomer, unassigned; (-)) | 178 to 180
Cc1ccc(S(=O)(=O)N(C)c2ccc(Cl)nn2)cc1 | 80 to 81
CCCCCCCCCCCCCCCC(=O)OCCN(C)C | 46 to 48
COc1ccc(C(=O)C(=O)NC(C)C)s1 | 72 to 73
